Each structure is given as a SMILES string. In brackets after ≈: the same amount, converted by molar mass.

Data set [1] relates to MCF7. Put plainly: Cytotoxicity against human MCF7 cells assessed as reduction in cell growth incubated for 24 hrs by SRB assay. Format: functional, cell-based. The following applies: MCF7, 24 h. (In general: The SRB assay estimates cell density from bound dye.)
The test system of data set [2] is HepG2. Briefly: Cytotoxicity against human HepG2 cells assessed as reduction in cell growth incubated for 24 hrs by SRB assay. As to conditions: HepG2, 24 h. The format is functional, cell-based.
The subject of data set [3] is Leukemia cell. Put plainly: Growth inhibition of human Leukemia cell. Format: functional.
The subject of data set [4] is MCF7. Put plainly: Anticancer activity against human MCF7 cells at 1.5 uM relative to control. Format: functional.
Data set [5] has as its system MCF7. Put plainly: Anticancer activity against human MCF7 cells at 31.25 uM relative to control. Format: functional.
The subject of data set [6] is MCF7. Put plainly: Anticancer activity against human MCF7 cells at 125 uM relative to control. Format: functional.
Data set [7] deals with MCF7. Briefly: Anticancer activity against human MCF7 cells at 7.8 uM relative to control. Format: functional.
Data set [8] has as its system MCF7. Put plainly: Anticancer activity against human MCF7 cells at 15.6 uM relative to control. The format is functional.
Data set [9] has as its system MCF7. Briefly: Anticancer activity against human MCF7 cells at 62.5 uM relative to control. The format is functional.
Data set [10] has as its system MCF7. Put plainly: Anticancer activity against human MCF7 cells at 3.9 uM relative to control. Format: functional.
For data set [11], the system named is MCF7. Briefly: Anticancer activity against human MCF7 cells at 1.9 uM relative to control. The format is functional.
Data set [12] deals with MCF7. Briefly: Anticancer activity against human MCF7 cells at 500 uM relative to control. Format: functional.
In data set [13] the test system is L02. Briefly: Antiproliferative activity against human LO2 cells assessed as reduction in cell growth by MTT assay. Format: functional, cell-based. A general note: Formazan colour is commonly taken as a measure of viable cells.
A short description of data set [14]: Antiproliferative activity against human HepG2 cells assessed as reduction in cell growth by MTT assay. The format is toxicity, cell-based.
For data set [15], the system named is MDA-MB-231. Briefly: Antiproliferative activity against human MDA-MB-231 cells assessed as reduction in cell growth by MTT assay. The format is functional, cell-based.
Data set [16] in a line: Antiproliferative activity against human MCF-10A cells assessed as reduction in cell growth by MTT assay. The format is toxicity, cell-based.
In data set [17] the test system is MCF7. Put plainly: Cytotoxicity against human MCF7 cells assessed as reduction in cell growth measured for 24 hrs by MTT assay. Format: functional, cell-based. The following applies: MCF7, 24 h.
Data set [18] relates to HepG2. Briefly: Cytotoxicity against human HepG2 cells assessed as reduction in cell growth incubated for 24 hrs by MTT assay. The format is functional, cell-based. The following applies: HepG2, 24 h.
In data set [19] the test system is Caco-2. Briefly: Cytotoxicity against human Caco-2 cells assessed as reduction in cell growth measured for 24 hrs by MTT assay. Format: functional, cell-based. The following applies: Caco-2, 24 h.
Data set [20] deals with AGS. Briefly: Antiproliferative activity against human AGS cells assessed as reduction in cell viability incubated for 24 hrs by MTT assay. Format: functional, cell-based.
A short description of data set [21]: Antiproliferative activity against human MRC5 cells assessed as reduction in cell viability incubated for 24 hrs by MTT assay. Format: toxicity, cell-based.
Data set [22] deals with A549. Briefly: Antiproliferative activity against human A549 cells assessed as reduction in cell viability incubated for 24 hrs by MTT assay. Format: functional, cell-based. As to conditions: A549, 24 h.
Data set [23] is described as follows: Anticancer activity against HEK293 cells assessed as reduction in cell viability incubated for 48 hrs by MTT assay. Format: toxicity, cell-based. As to conditions: human.
Data set [24] relates to IMR-32. Put plainly: Anticancer activity against human IMR-32 cells assessed as reduction in cell viability incubated for 48 hrs by MTT assay. As to conditions: IMR-32, 48 h. The format is functional, cell-based.
For data set [25], the system named is A549. Put plainly: Anticancer activity against human A549 cells assessed as reduction in cell viability incubated for 48 hrs by MTT assay. Format: functional, cell-based. As to conditions: A549, 48 h.
In data set [26] the test system is HeLa. Briefly: Anticancer activity against human HeLa cells assessed as reduction in cell viability incubated for 48 hrs by MTT assay. Format: functional, cell-based.
Data set [27] in a line: Growth inhibition of human Colon cancer cell line. The format is functional.
Data set [28] can be described thus: Growth inhibition of human Melanoma cell. Format: functional.
Data set [29] can be described thus: Growth inhibition of human Non-small cell lung cancer cell line. Format: functional.
Data set [30] deals with CNS carcinoma cell. Briefly: Growth inhibition of human CNS carcinoma cell. The format is functional.
In data set [31] the test system is HeLa. Put plainly: Antiproliferative activity against human HeLa cells assessed as reduction in cell growth incubated for 48 hrs by MTT assay. Format: functional, cell-based.
In data set [32] the test system is K562. Put plainly: Antiproliferative activity against human K562 cells assessed as reduction in cell growth incubated for 48 hrs by MTT assay. The following applies: K562, 48 h. Format: functional, cell-based.
The test system of data set [33] is A549. Put plainly: Cytotoxicity against human A549 cells assessed as reduction in cell viability by MTT assay. Format: functional, cell-based.
Data set [34] concerns A2780. Put plainly: Cytotoxicity against human A2780 cells assessed as reduction in cell viability by MTT assay. Format: functional, cell-based.
The subject of data set [35] is MCF7. Put plainly: Cytotoxicity against human MCF7 cells assessed as reduction in cell viability by MTT assay. Format: functional, cell-based.
The test system of data set [36] is COLO 205. Put plainly: Cytotoxicity against human COLO 205 cells assessed as reduction in cell viability by MTT assay. The format is functional, cell-based.

Take `Cc1nc(S)n(-c2ccccc2)c1-c1cc(-c2ccccc2O)c(C#N)c(=O)[nH]1`: the figures for the IC50 in [1] and in data set [2] were 2 µg/mL (≈ 4.99 µM) and 3 µg/mL (≈ 7.49 µM), respectively.
The like results for `Cc1nc(S)n(-c2ccccc2)c1-c1cc(-c2ccc(-c3cc(-c4c(C)nc(S)n4-c4ccccc4)nc(N)c3C#N)cc2)c(C#N)c(N)n1` were, in that order, 1.7 µg/mL (≈ 2.47 µM) and 6 µg/mL (≈ 8.71 µM).
Consider `Cc1ccc(Nn2c(SCC(=O)Nc3nc(-c4ccccc4)cs3)nc(C)c2C)cc1`, for which the GI50 (in general, the concentration giving 50% growth inhibition) in data set [3] is 3.91 µM.
In the case of `Cc1ccc(-c2nc(-c3ccccc3)c(-c3ccccc3)n2Cc2ccc(F)cc2)cc1`, the inhibition (as a rule, the share of the control response that was lost under treatment) at 1.5 µM in [4] came to 90%. In [5], the inhibition at 31.25 µM stood at 47%. In data set [6], this compound returned an inhibition at 125 µM of 29%. This compound had an inhibition at 7.8 µM in data set [7] of 66%. This compound showed an inhibition at 15.6 µM in data set [8] of 53%. In addition, the inhibition at 62.5 µM in [9] is 38%. In data set [10], this compound had an inhibition at 3.9 µM of 72%. This compound showed an inhibition at 1.9 µM in data set [11] of 87%. In data set [12], the inhibition at 500 µM was determined as 15%.
In data set [4], `COc1ccc(-c2nc(-c3ccccc3)c(-c3ccccc3)n2Cc2ccc(F)cc2)cc1` gave an inhibition at 1.5 µM of 82%. In [5], this compound returned an inhibition at 31.25 µM of 54%. The compound further yielded an inhibition at 125 µM in data set [6] of 39%. The same compound yielded an inhibition at 7.8 µM in data set [7] of 73%. Moreover, at 15.6 µM the inhibition in [8] was 65%. The inhibition at 62.5 µM in data set [9] is 41%. Moreover, the inhibition at 3.9 µM in data set [10] came out at 79%. Besides, the inhibition at 1.9 µM in data set [11] came out at 88%. The same compound yielded an inhibition at 500 µM in [12] of 13%.
Turning to `c1ccc(-c2nc(-c3c[nH]c4ccccc34)[nH]c2-c2ccccc2)cc1`, the IC50 (commonly the concentration that gives 50% inhibition) worked out at 34.7 µM in [13], 29.3 µM in data set [14], 31.4 µM in [15] and 31.8 µM in data set [16].
With `c1ccc(-c2nc(-c3ccc(OCc4c(COc5ccc(-c6nc(-c7ccccc7)c(-c7ccccc7)[nH]6)cc5)c(COc5ccc(-c6nc(-c7ccccc7)c(-c7ccccc7)[nH]6)cc5)c(COc5ccc(-c6nc(-c7ccccc7)c(-c7ccccc7)[nH]6)cc5)c(COc5ccc(-c6nc(-c7ccccc7)c(-c7ccccc7)[nH]6)cc5)c4COc4ccc(-c5nc(-c6ccccc6)c(-c6ccccc6)[nH]5)cc4)cc3)[nH]c2-c2ccccc2)cc1`, the IC50 in data set [17] is 35.4 µM; in data set [18] it was 9.77 µM; in data set [19], 32.5 µM.
For `Fc1ccc(Cn2c(-c3ccc(Cl)cc3)nc(-c3ccccc3)c2-c2ccccc2)cc1`, in data set [4], at 1.5 µM the inhibition was 88%. Besides, at 31.25 µM the inhibition in data set [5] was 39%. Moreover, the inhibition at 125 µM in data set [6] is 24%. Testing at 7.8 µM in [7] gave an inhibition of 63%. In data set [8], this compound gave an inhibition at 15.6 µM of 55%. This compound also yielded an inhibition at 62.5 µM in data set [9] of 30%. In [10], at 3.9 µM the inhibition was 78%. This compound registered an inhibition at 1.9 µM in [11] of 65%. Also, the inhibition at 500 µM in [12] is 12%.
Regarding `Cn1ccnc1/C=C/C(=O)c1ccc(F)cc1`, the IC50 in [20] was 29.3 µM; in data set [22] it was above 100 µM. The IC50 at 24 h in data set [21] is above 100 µM.
With `Brc1ccc(-c2nc(-c3c[nH]c4ccccc34)[nH]c2-c2ccc(Br)cc2)cc1`, the IC50 at 48 h in data set [23] came out at 98.5 µM. Also, the IC50 in data set [24] came to 10.5 µM; in [25] it was 9.52 µM; in data set [26], 11.2 µM.
With `Oc1ccc(/C=C/c2cc(O)cc(O)c2)cc1` [RESVERATROL], the GI50 in [27] came out at 56 µM; in data set [28], 64.6 µM; in [29], 61.7 µM; in data set [3], 15.9 µM; in data set [30], 70.8 µM.
`COc1cc([C@@H]2c3cc4c(cc3[C@H](n3cnc(C)c3)[C@H]3COC(=O)[C@H]23)OCO4)cc(OC)c1OC`: the IC50 in [31] stood at 4.48 µM; in [32] it was 8.8 µM.
For `COc1cc([C@@H]2c3cc4c(cc3[C@@H](n3cnc([N+](=O)[O-])c3)[C@H]3COC(=O)[C@H]23)OCO4)cc(OC)c1O`, in data set [32], the IC50 is 7.43 µM.
In the case of `COc1ccc(Nn2c(SCC(=O)Nc3nc(-c4ccc(Cl)cc4)cs3)nc(C)c2C)cc1`, growth in data set [3] was halved (GI50) at 4.15 µM.
`COc1cc(OC)c(S(=O)(=O)n2ccnc2-c2ccon2)c(OC)c1`: the IC50 in [33] is 0.29 µM; in data set [34], 1.22 µM; in data set [35], 0.41 µM; in [36], 0.26 µM.

The values are drawn from ChEMBL document CHEMBL6074649, “An insight into recent developments in imidazole based heterocyclic compounds as anticancer agents: Synthesis, SARs, and mechanism of actions” (Eur J Med Chem, 2024).
